The numbers were not newly measured in patent US6284845A, “Low temperature cure carboxyl terminated polyesters” (McWhorter Technologies, priority 1999, dated 2001), which cites them from elsewhere.

The subject of data set [1] is rabbit.
For data set [2], the system named is rabbit. The source holds these as a separate data set.

Each structure is given as a SMILES string.

Consider `CC(O)CN(CC(C)O)C(=O)CCCCC(=O)N(CC(C)O)CC(C)O` (stereo not drawn) [Primid QM-1260, N,N,N',N'-Tetrakis (2-hydroxypropyl) adipamide], for which, in the data set on rabbit [1], the Primary eye irritation entry is “not irritating”. In the data set with rabbit [2], the Primary skin irritation result is on record as “not irritating”. Further, in the data set with rat, the “Acute oral toxicity LD50” value is above 2000 mg/kg.
As to `O=C(CCCCC(=O)N(CCO)CCO)N(CCO)CCO` [Primid XL-552, N,N,N',N'-Tetrakis (2-hydroxyethyl) adipamide], the Primary eye irritation result in the data set on rabbit [1] is given as “not irritating”. The Primary skin irritation entry in the data set on guinea pig is reported as “not irritating”. Further, in the data set with rat, the “Acute oral toxicity LD50” value was above 5000 mg/kg.
